Holding throughout (assay type): cell-based, human
Assay [1] concerns P10 LNC. The assay can be described thus: Immunofluorescence staining (cytospin), nuclear translocation. On the procedure:
Immunostaining: LNC were then subjected to cytospin to determine nuclear translocation of HIF1α, HIF1β, HIF2α, SDF-1, CXCR4, and Hes1 at 5, 15, 30 and 60 mins.
Single cells of LNC or CSC at different passages were harvested with 0.05% trypsin and 1 mM EDTA at 37° C. for 10 min and prepared for cytospin using Cytofuge (StatSpin Inc., Norwood, Mass.) at 1000 g for 8 min. Cells were fixed with 4% formaldehyde, pH 7.0, for 15 min at room temperature, permeabilized with 0.2% Triton X-100 in PBS for 15 min and blocked with 2% bovine serum albumin (BSA) for 1 h before incubated with primary antibodies for 16 h at 4° C. After 3 washes with PBS, the corresponding Alexa Fluor-conjugated secondary IgG (all 1:100 dilution) were incubated for 60 min and 3 washing with PBS. After 3 washes with PBS, the second primary antibodies were incubated for 60 min and followed with the corresponding Alex Fluor-conjugated secondary IgG. The nucleus was counterstained with Hoechst 33342 before being analyzed with Zeiss LSM 700 confocal microscope (Carl Zeiss, Thornwood, N.Y.). Corresponding mouse and rabbit sera were used as negative controls for primary monoclonal and polyclonal antibodies, respectively.

Assay [2] relates to P10 LNC. The assay can be described thus: Subcellular fractionation and Western blotting. On the procedure: Nuclear and cytoplasmic fractions were prepared using the NE-PER® Nuclear and Cytoplasmic Extraction Reagents Kit (Pierce, Rockford, Ill., USA) as per manufacturer's instruction. Briefly, the treated P10 LNC were washed once on cold PBS and centrifuged at 500 g for 5 min.
The cell pellet was suspended in 100 μL of cytoplasmic extraction reagent I containing protease inhibitor by vortexing. The suspension was incubated on ice for 10 min followed by the addition of 6 μL of a second cytoplasmic extraction reagent II, vortexed for 5s, incubated on ice for 1 min and centrifuged for 5 min at 16 000 g. The supernatant fraction (cytoplasmic extract) was transferred to a pre-chilled tube. The insoluble pellet fraction, which contains crude nuclei, was resuspended in 50 μL of nuclear extraction reagent by vortexing during 15s three times and incubated on ice for 10 min each, then centrifuged for 10 min at 16 000 g. The resulting supernatant, constituting the nuclear extract, was used for the subsequent experiments. Protein concentration was quantitated using the BCA protein assay kit (Pierce). […] Immunoreactive proteins were detected with Western Lighting Chemiluminescence (PerkinElmer, Waltham, Mass.) and images captured by GE ImageQuant LAS 4000 (GE Healthcare Biosciences, Pittsburgh, Pa.).

In assay [3] the test system is P10 LNC. The assay can be described thus: Time course mRNA expression by qPCR. As for the experimental part: (§1) Cell culture: For time course study, 1×10^5/ml of P10 LNC was seeded on three substrates: 3D Matrigel™, HA, or HC-HA/PTX3 in MESCM at 5, 15, 30, 60 mins, 24 h and 48 h (Table 2).
qPCR: Comparisons were made of mRNA expression of HIF1α, HIF1β, HIF2α, SDF-1, CXCR4, Hes1 at 5, 15, 30, 60, 120, 240 min or 24 and 48 h.
Cell culture: 1×10^5/ml of P10 LNC was seeded on three substrates: 3D Matrigel™ HA, or HC-HA/PTX3 in MESCM for 48 h. For time course study on HC-HA/PTX3, P10 LNC will be treated HC-HA/PTX3 for 5, 15, 30, 60 mins, 24 h and 48 h.
qPCR: Comparison mRNA expression VEGF, PDGFα, CD31 and IGF-1 for angiogenesis and NGF and p75^NTR for neurogenesis at 5, 15, 30, 60, 120, 240 min 24 or 48 h on 3D MG, immobilized HA and immobilized HC-HA/PTX3.
(§2) For the siRNA knockdown, 80% confluent P10 LNC on 6-well coated MG were subjected to transfection by mixing 200 μL of serum-free, antibiotic-free MESCM with 4 μL of HiPerFect siRNA transfection reagent (Final dilution, 1:300) and 6 μL of 20 μM of scRNA or siRNAs for BMPR1A, BMPR1B, BMPR2, and ACVR1 at the final concentration of 100 nM, drop-wise, followed by culturing in 1 mL of fresh MESCM at 37° C. for 24 h before soluble HC-HA/PTX3 was added at a final concentration of 20 μg/mL in MESCM.
Total RNAs were extracted from expanded LNC by RNeasy Mini Kit (Qiagen, Valencia, Calif.) according to manufacturer's guideline and 1-2 ug of RNA extract was reverse transcribed to cDNA with reverse-transcribed using Applied Biosystem™ High Capacity Reverse Transcription Kit (Thermo Fisher, Santa Clara, Calif.) using primers. The resultant cDNAs were amplified by specific TaqMan gene expression assay mix and universal PCR master mix in QuantStudio™ 5 Real Time PCR System (Thermo Fisher, Santa Clara, Calif.) with real-time RT-PCR profile consisting of 10 min of initial activation at 95° C., followed by 40 cycles of 15 sec denaturation at 95° C., and 1 min annealing and extension at 60° C. […] Threshold cycle number (Ct) was calculated with QuantStudio Design and. […] The relative gene expression data were analyzed by the comparative CT method (ΔΔCT). […]

For assay [4], the system named is P4 LNC. The assay can be described thus: Notch signaling and transcript expression in P4 LNC on plastic, 3D Matrigel or immobilized HC-HA/PTX3.
The test system of a further assay is LEPC and LNC. The assay can be described thus: Blocking Notch signaling in LEPC+LNC on immobilized HC-HA/PTX3. On the procedure:
FIGS. 41A-41C illustrate blocking Notch signaling inhibits BMP and non-canonical Wnt in LEPC and LNC on immobilized HC-HA/PTX3 at 48 hours. FIG. 41A illustrates a graph of mRNA levels of various genes following treatment of HC-HA/PTX3 and HC-HA/PTX3/DAPT in LNCS renunioned with LEPC. FIG. 41B illustrates immunostaining with various markers.

Another assay has as its system Rac1. The assay can be described thus: Rho GTPase activity in LNC. To be noted: within 60 minutes, HC-HA/PTX3 active at 5 and 15 min, reduced at 30 min.
Assay [5] deals with P4 LNC. The assay can be described thus: Immunofluorescence staining (cytospin), nuclear translocation. As for the experimental part: Cell culture: For time course study, 1×10^5/ml of P4 LNC were seeded on substrates HA or HC-HA/PTX3 in MESCM at 5, 15, 30, 60 min, 24 h and 48 h (Table 3).
Immunostaining: LNC then were subjected to cytospin to determine nuclear translocation of HIF1α, HIF1β, HIF2α, SDF-1, CXCR4, and Hes1 at 5, 15, 30 and 60 min.

The test system of another assay is HUVEC or pericytes (LNC). The assay can be described thus: Cell proliferation by Edu nuclear staining. To be noted: HUVEC or pericytes (LNC) alone. The text has this:
Cells: GFP HUVEC (P3) were purchased from Neuromics (Cat #GF01). These cells were isolated from normal human umbilical vein and transfected with GFP-lentiviral particle at passage 1. Puromycin resistant GFP HUVEC were maintained on fibronectin coated solution in Endo-growth medium containing 5% FBS and growth supplement until passage 3. Cells were split 1:3 every three days when ˜70%-90% confluence is reached. Cells of passage 3-8 were used for all experiments.
LNC (P2-P5) was expanded in MESCM containing 4 ng/ml bFGF and 10 ng/ml LIF on 6-well plastic coated with 5% Matrigel™

The subject of assay [6] is P10 LNC. The assay can be described thus: Cell aggregation / sphere formation by phase contrast microscopy. On the procedure:
as §1
For expansion, single cells derived from limbal clusters or CSC after digestion with 0.25% trypsin and 1 mM EDTA (T/E) were seeded at 1×10^4/cm^2 in the 6-well plate pre-coated with 5% Matrigel™ in MESCM and cultured in humidified 5% CO2 with media change every 3-4 days for total 6-7 days. For cells culture in three-dimensional (3D) Matrigel, Matrigel was prepared by adding 50% Matrigel diluted in MESCM per chamber of an 8-well chamber slide following incubation at 37° C. for 60 min. LNC cells were seeded in 3D Matrigel and cultured for 24 h or 48 h in MESCM.
as §2

On to `c1cc(CN2CCCNCCNCCCNCC2)ccc1CN1CCCNCCNCCCNCC1` [AMD3100], for which the CXCR4 staining entry in the assay on P10 LNC [1] (60 min period, P10 LNC, soluble HC-HA/PTX3 with or without AMD3100, or 3D MG) is “reverted to that of 3D MG”. Besides, the “nuclear staining of pSmad1/5” value in the assay on P10 LNC [1] (P10 LNC, soluble HC-HA/PTX3 with or without AMD3100) is listed as “absent nuclear staining”. The “immunofluorescence of SDF-1” value in the assay with P10 LNC [1] (throughout 60 min) is given as “became negative”. Besides, in the assay on P10 LNC [2] (5, 15, 30 min), the “nuclear pSmad1/5” value is given as “not promoted”. For the same compound, the “CXCR4 and Pax6 protein in cytoplasmic and nuclear fractions” value in the assay on P10 LNC [2] (15 and 30 min, AMD3100 all time points) is reported as “remain in cytoplasmic fraction”. The “HIF-1α and HIF-1β transcripts” value with P10 LNC [3] (addition of AMD3100) was “upregulated two peaks”. In the assay on P10 LNC [3] (throughout 48 h, with soluble HC-HA/PTX3), the “transcript levels of BMP2, BMP4 and BMP6, effect of inhibitor” value is listed as “aborted”. Further, the “Pax6, p75NTR, NGF, Musashi-1, Msx-1 and FoxD3 transcripts, effect of inhibitor” value in the assay on P10 LNC [3] (with soluble HC-HA/PTX3) is recorded as “significant downregulation”.

In the case of `C[C@H](NC(=O)Cc1cc(F)cc(F)c1)C(=O)N[C@H](C(=O)OC(C)(C)C)c1ccccc1` [DAPT], in the assay with P4 LNC [4], the “cell aggregation of LNC on HC-HA/PTX3, effect of inhibitor” value is “did not prevent”. For the same compound, the “Notch1/2/3/Jagged 1/Hes1 signaling with MET epithelial phenotype (p63α, Pax6, Sox9), effect of inhibitor” value with P4 LNC [4] (LNC on HC-HA/PTX3) is reported as “further promoted”. Further, the “nuclear psmad/1/5/8 and c-Jun” value in the assay with LEPC and LNC (LEPC+LNC on immobilized HC-HA/PTX3) was “absence”. The quiescence epithelium markers result with LEPC and LNC (LEPC+LNC on immobilized HC-HA/PTX3, 48 hours) is recorded as “significantly downregulated”.

Regarding hyaluronic acid [HA], the “Rac1 GTPase activities” value with Rac1 is on record as “gradual decline”. In the assay on P10 LNC [1] (5 and 30 min, comparators entire 60 min), the “nuclear PP2A C subunit” value is listed as “significantly less expression”. Moreover, in the assay on P10 LNC [1] (HC-HA/PTX3: as early as 15 min, prominent at 30 min, no longer nuclear at 60 min), the CXCR4 localisation entry is “membrane translocation”. Also, the “staining of HIF1α and HIF1β” value in the assay with P10 LNC [1] (HC-HA/PTX3: at 5 min, HIF1α sustained till 15 and 30 min) was “both cytoplasmic and nuclear”. Moreover, the “nuclear p-PHD2 (serine 125)” value in the assay on P10 LNC [1] (HC-HA/PTX3 at 5 and 15 min, HA and 3D MG throughout 60 min) is “maintained nuclear Phospho-PHD2”. Besides, in the assay with P10 LNC [1] (P10 LNC), the “earliest nucleus Hes1” value was 15 min. Also, in the assay on P4 LNC [5], the HIF2α entry is reported as “No changes”; the “NICD and SDF1” value is recorded as “No changed”; the “time of HIF1α nuclear translocation” value is “did the same”; the “time of HIF1β nuclear translocation” value lay in the range of 5 to 30 min. In the assay on P4 LNC [5], the “time of Hes1 nuclear translocation” value lay in the range of 5 to 15 min. Also, the CXCR4 nuclear translocation result with P4 LNC [5] (5, 30 min, transient) is reported as “does not”. Besides, the “cell proliferation (Edu nuclear staining)” value in the assay on HUVEC or pericytes (LNC) is on record as “promoted cell proliferation”. Also, the “cell aggregation as early as 60 min” value with P10 LNC [6] is listed as “not”.

The record behind these values is US20230172994A1, “METHODS OF PROMOTING VASCULOGENESIS” (TissueTech, Inc., priority 2019, published 2023).
